Results from US20060111305A1, “Metabolites of certain [1,4]diazepino[6,7,1-ij]quinoline derivatives and methods of preparation and use thereof” (Wyeth, priority 2004, published 2006).
Several values for one entry are separate records, joined by “and”; a condition that tells them apart may be missing. Equal entries are not always repeated. Where two headings read alike, the source gives them in different places.

Assay: Concentrations of DCDQ and DCDQ carbamoyl glucuronide (M6) in human plasma, LC/SRM (Table 34)
Type: in vivo, healthy human subjects
Conditions: plasma, plasma; for concentration at 6 h / concentration at 12 h / concentration at 24 h: human, oral, read-out: DCDQ concentration in plasma
Protocol: Drug administration and specimen collection were performed in a randomized, double-blinded, placebo-controlled, ascending single dose study of the safety, tolerability, pharmacokinetics, and pharmacodynamics of DCDQ administered orally to healthy subjects and subjects with schizophrenia and schizoaffective disorder. The specimens were stored at approximately −70° C. until analysis for metabolite profiles and for ratios of carbamoyl glucuronide (M6) to DCDQ.
Plasma samples from fasted subjects 25, 28 and 30 in the 50 mg single dose group, fasted subjects 50, 51, 54 in the 200 mg single dose group, fasted subjects 74, 76, 79 in the 300 mg single dose group, fed subjects 83, 84, 86 in the 300 mg single dose group and fasted subjects 92, 94, 96 in the 500 mg single dose group were analyzed for DCDQ carbamoyl glucuronide (M6) concentrations. The internal standard d8-DCDQ (25 μL of 200 ng/mL methanol solution) was added to 100 μL of the plasma samples, followed by the addition of 300 μL of acetonitrile. The samples were mixed and centrifuged at 14000 rpm in an Eppendorf 5415C centrifuge (Brinkman Instruments Inc., Westbury, N.Y.) for 10 minutes. The supernatant of each sample was transferred to a clean tube and evaporated to dryness under a stream of nitrogen in a TurboVap LV evaporator (Caliper Life Sciences, Hopkinton, Mass.). The residue was reconstituted with 50 μL of methanol followed by the addition of 150 μL of water. The sample was mixed and centrifuged as described above. The supernatant was analyzed by LC/MS/MS analysis. Samples for standard curves were prepared with control plasma spiked with synthetic M6. The concentrations of M6 used for the standard curve ranged from 0 to 2500 ng/mL plasma.
LC/MS System 3 was used for semi-quantitative analysis of metabolite M6 (DCDQ carbamoyl glucuronide) in plasma and urine samples. The HPLC equipment for this LC/MS System consisted of a Thermo Surveyor HPLC (Thermo Electron Corp., San Jose, Calif.), including a Surveyor MS pump and autosampler. Separations were accomplished on a 5 micron Phenomenex Luna C18(2) column, 150×2 mm (Phenomenex, Torrance, Calif.). The autosampler and column temperatures were set at 5° C. and 40° C., respectively. The HPLC mobile phase consisted of 10 mM ammonium acetate (A) and methanol (B), and was delivered at 0.2 mL/min. The linear mobile phase gradient (HPLC Gradient 2) is shown below. During LC/MS sample analysis, up to 3 min of the initial flow was diverted away from the mass spectrometer prior to evaluation of metabolites.
The mass spectrometer used for semi-quantitative anslysis with LC/MS System 3 was a Finnigan TSQ Quantum triple quadrupole mass spectrometer (Thermo Electron Corp.). The mass spectrometer was equipped with an electrospray interface and operated in the positive ionization mode. Settings for this mass spectrometer are listed below.
LC/MS/MS analysis in the selected reaction monitoring (SRM) mode (LC/SRM) was conducted for DCDQ and M6 using the following settings.
The computer program Microsoft Excel® 97 was used to calculate means and standard deviations and to perform the student t-test. Xcalibur (version 1.3) and MassLynx software (version 4.0) were used for collection and analysis of LC/MS data. Peak area ratios of M6 to the internal standard were used for quantitation of M6 in plasma samples.

c1cc2c3c(c1)[C@H]1CCC[C@H]1CN3CCNC2 [DCDQ, (9aR,12aS)-4,5,6,7,9,9a,10,11,12,12a-decahydro-cyclopenta[c][1,4]diazepine[6,7,1-ij]quinoline, reference compound]
concentration at 6 h (50 mg, 50 mg (fasted), 6 hr, Mean ± S.D.): 2.47 ± 2.21 ng/mL | concentration at 12 h (50 mg, 50 mg (fasted), 12 hr, Mean ± S.D.): 1.2 ± 1.14 ng/mL | concentration at 24 h (50 mg, 50 mg (fasted), 24 hr, Mean (standard deviation not calculated)): 0.4 ng/mL | concentration at 6 h (200 mg, 200 mg (fasted), 6 hr, Mean ± S.D.): 10.9 ± 7.71 ng/mL | concentration at 12 h (200 mg, 200 mg (fasted), 12 hr, Mean ± S.D.): 5.6 ± 4.06 ng/mL | concentration at 24 h (200 mg, 200 mg (fasted), 24 hr, Mean ± S.D.): 1.5 ± 1.15 ng/mL | concentration at 6 h (300 mg, 300 mg (fasted), 6 hr, Mean ± S.D.): 7.45 ± 7.48 ng/mL | concentration at 12 h (300 mg, 300 mg (fasted), 12 hr, Mean ± S.D.): 4.23 ± 3.26 ng/mL | concentration at 24 h (300 mg, 300 mg (fasted), 24 hr, Mean ± S.D.): 1.46 ± 0.43 ng/mL | concentration at 24 h (300 mg, 300 mg (fasted), 24 hr, individual subjects): 0.972 ng/mL | concentration at 6 h (300 mg, 300 mg (fed), 6 hr, Mean ± S.D.): 12 ± 9.39 ng/mL | concentration at 12 h (300 mg, 300 mg (fed), 12 hr, Mean ± S.D.): 8.31 ± 2.47 ng/mL | concentration at 12 h (300 mg, 300 mg (fed), 12 hr, individual subjects): 10.9 ng/mL | concentration at 24 h (300 mg, 300 mg (fed), 24 hr, Mean ± S.D.): 2.15 ± 0.86 ng/mL | concentration at 6 h (500 mg, 500 mg (fasted), 6 hr, Mean ± S.D.): 32.1 ± 12.2 ng/mL | concentration at 12 h (500 mg, 500 mg (fasted), 12 hr, Mean ± S.D.): 19.4 ± 6.56 ng/mL | concentration at 24 h (500 mg, 500 mg (fasted), 24 hr, Mean ± S.D.): 5.45 ± 1.47 ng/mL | concentration at 24 h (500 mg, 500 mg (fasted), 24 hr, individual subjects): 5.53 ng/mL | DCDQ concentration in plasma (50 mg (fasted), 6 hr, individual subjects): 0.9 ng/mL and 5.0 ng/mL | DCDQ concentration in plasma (50 mg (fasted), 12 hr, individual subjects): 0.7 ng/mL and 0.4 ng/mL and 2.5 ng/mL | DCDQ concentration in plasma (50 mg (fasted), 24 hr, individual subjects): 0.2 ng/mL and 0.6 ng/mL | DCDQ concentration in plasma (200 mg (fasted), 6 hr, individual subjects): 2.7 ng/mL and 18.0 ng/mL and 12.0 ng/mL | DCDQ concentration in plasma (200 mg (fasted), 12 hr, individual subjects): 1.2 ng/mL and 9.2 ng/mL and 6.4 ng/mL | DCDQ concentration in plasma (200 mg (fasted), 24 hr, individual subjects): 0.3 ng/mL and 2.6 ng/mL and 1.6 ng/mL | DCDQ concentration in plasma (300 mg (fasted), 6 hr, individual subjects): 2.09 ng/mL and 4.27 ng/mL and 16.0 ng/mL | DCDQ concentration in plasma (300 mg (fasted), 12 hr, individual subjects): 1.50 ng/mL and 3.34 ng/mL and 7.84 ng/mL | DCDQ concentration in plasma (300 mg (fasted), 24 hr, individual subjects): 1.72 ng/mL and 1.70 ng/mL | DCDQ concentration in plasma (300 mg (fed), 6 hr, individual subjects): 19.0 ng/mL and 15.6 ng/mL and 1.30 ng/mL | DCDQ concentration in plasma (300 mg (fed), 12 hr, individual subjects): 8.06 ng/mL and 5.97 ng/mL | DCDQ concentration in plasma (300 mg (fed), 24 hr, individual subjects): 2.60 ng/mL and 1.15 ng/mL and 2.69 ng/mL | DCDQ concentration in plasma (500 mg (fasted), 6 hr, individual subjects): 44.5 ng/mL and 31.7 ng/mL and 20.2 ng/mL | DCDQ concentration in plasma (500 mg (fasted), 12 hr, individual subjects): 24.5 ng/mL and 21.7 ng/mL and 12.0 ng/mL | DCDQ concentration in plasma (500 mg (fasted), 24 hr, individual subjects): 6.88 ng/mL and 3.95 ng/mL
